Source: patent publication US9499550B2 (BRISTOL-MYERS SQUIBB COMPANY, priority 2012, dated 2016)

Assays:
[1] = test system: HCV genotype 1a (H77 strain) replicon in HUH-7 cells; experiment: HCV replicon luciferase reporter assay, genotype 1a; type: cell-based; details: Hepatitis C virus, Huh-7, 72 h, HCV genotype 1a replicon luciferase assay, 3 days incubation, range class, read-out: LE_1a (EC50, range)
Outline: (§1)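 Replicon inhibition for both genotypes was measured as Renilla luciferase signal (EnduRen, 7.5 μM final, 2 h) after 3-day, 37° C exposure of replicon-bearing HUH-7 cells in 4% FCS DMEM, 0.5% DMSO. The 1b construct carries S1179I; the 1a H77 construct carries P1496L and S2204I. Twenty-point, 3-fold dilutions were fitted four-parametrically for EC50, and CC50 was taken from multiplexed Cell Titer-Blue.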

[2] = test system: HCV genotype 1b (Con1) replicon in HUH-7 cells; experiment: HCV replicon luciferase reporter assay, genotype 1b; type: cell-based; details: Hepatitis C virus, Huh-7, 72 h, HCV genotype 1b replicon luciferase assay, 3 days incubation, range class, read-out: LE_1b (EC50, range)
Outline: as §1

## COCCn1nc(O[C@@H]2C[C@H]3C(=O)N[C@]4(C(=O)NS(=O)(=O)C5(C)CC5)C[C@H]4/C=C\CC[C@@H](C)C[C@@H](C)[C@H](NC(=O)OC(C)(C)C(C)(F)F)C(=O)N3C2)c2ccccc2c1=O [Compound 1020, 3,3-difluoro-2-methylbutan-2-yl((2R,6S,7R,9R,13aS,14aR,16aS,Z)-2-((3-(2-methoxyethyl)-4-oxo-3,4-dihydrophthalazin-1-yl)oxy)-7,9-dimethyl-14a-(((1-methylcyclopropyl)sulfonyl)carbamoyl)-5,16-dioxo-1,2,3,5,6,7,8,9,10,11,13a,14,14a,15,16,16a-hexadecahydrocyclopropa[e]pyrrolo[1,2-a][1,4]diazacyclopentadecin-6-yl)carbamate]
[1]
  EC50: 4.82 to 103 nM
[2]
  EC50: 4.82 to 103 nM

## COCCn1nc(O[C@@H]2C[C@H]3C(=O)N[C@]4(C(=O)NS(=O)(=O)C5CC5)C[C@H]4/C=C\CC[C@H](C)C[C@@H](C)[C@H](NC(=O)OC(C)(C)C(F)(F)F)C(=O)N3C2)c2ccccc2c1=O [Compound 1021, 1,1,1-trifluoro-2-methylpropan-2-yl((2R,6S,7R,9S,13aS,14aR,16aS,Z)-14a-((cyclopropylsulfonyl)carbamoyl)-2-((3-(2-methoxyethyl)-4-oxo-3,4-dihydrophthalazin-1-yl)oxy)-7,9-dimethyl-5,16-dioxo-1,2,3,5,6,7,8,9,10,11,13a,14,14a,15,16,16a-hexadecahydrocyclopropa[e]pyrrolo[1,2-a][1,4]diazacyclopentadecin-6-yl)carbamate]
[1]
  EC50: > 87.4 nM
[2]
  EC50: > 87.4 nM

## COCCn1nc(O[C@@H]2C[C@H]3C(=O)N[C@]4(C(=O)NS(=O)(=O)C5CC5)C[C@H]4/C=C\CC[C@@H](C)C[C@@H](C)[C@H](NC(=O)OC(C)(C)C(F)(F)F)C(=O)N3C2)c2ccccc2c1=O [Compound 1022, 1,1,1-trifluoro-2-methylpropan-2-yl((2R,6S,7R,9R,13aS,14aR,16aS,Z)-14a-((cyclopropylsulfonyl)carbamoyl)-2-((3-(2-methoxyethyl)-4-oxo-3,4-dihydrophthalazin-1-yl)oxy)-7,9-dimethyl-5,16-dioxo-1,2,3,5,6,7,8,9,10,11,13a,14,14a,15,16,16a-hexadecahydrocyclopropa[e]pyrrolo[1,2-a][1,4]diazacyclopentadecin-6-yl)carbamate]
[1]
  EC50: 4.82 to 103 nM
[2]
  EC50: 4.82 to 103 nM

## COCCn1nc(O[C@@H]2C[C@H]3C(=O)N[C@]4(C(=O)NS(=O)(=O)C5CC5)C[C@H]4/C=C\CC[C@@H](C)C[C@@H](C)[C@H](NC(=O)OC(C)(C)C(C)(F)F)C(=O)N3C2)c2ccccc2c1=O [Compound 1024, 3,3-difluoro-2-methylbutan-2-yl((2R,6S,7R,9R,13aS,14aR,16aS,Z)-14a-((cyclopropylsulfonyl)carbamoyl)-2-((3-(2-methoxyethyl)-4-oxo-3,4-dihydrophthalazin-1-yl)oxy)-7,9-dimethyl-5,16-dioxo-1,2,3,5,6,7,8,9,10,11,13a,14,14a,15,16,16a-hexadecahydrocyclopropa[e]pyrrolo[1,2-a][1,4]diazacyclopentadecin-6-yl)carbamate]
[1]
  EC50: 4.82 to 103 nM
[2]
  EC50: 4.82 to 103 nM

## C[C@H]1CC/C=C\[C@@H]2C[C@@]2(C(=O)NS(=O)(=O)C2(C)CC2)NC(=O)[C@@H]2C[C@@H](Oc3ncc(OCC(F)F)c4ccccc34)CN2C(=O)[C@@H](NC(=O)OC(C)(C)C)[C@H](C)C1 [Compound 1025, tert-butyl ((2R,6S,7R,9S,13aS,14aR,16aS,Z)-2-((4-(2,2-difluoroethoxyl)isoquinolin-1-yl)oxy)-7,9-dimethyl-14a-(((1-methylcyclopropyl)sulfonyl)carbamoyl)-5,16-dioxo-1,2,3,5,6,7,8,9,10,11,13a,14,14a,15,16,16a-hexadecahydrocyclopropa[e]pyrrolo[1,2-a][1,4]diazacyclopentadecin-6-yl)carbamate]
[1]
  EC50: 4.82 to 103 nM
[2]
  EC50: < 5.46 nM

## C[C@@H]1CC/C=C\[C@@H]2C[C@@]2(C(=O)NS(=O)(=O)C2(C)CC2)NC(=O)[C@@H]2C[C@@H](Oc3ncc(OCC(F)F)c4ccccc34)CN2C(=O)[C@@H](NC(=O)OC(C)(C)C)[C@H](C)C1 [Compound 1026, tert-butyl ((2R,6S,7R,9R,13aS,14aR,16aS,Z)-2-((4-(2,2-difluoroethoxyl)isoquinolin-1-yl)oxy)-7,9-dimethyl-14a-(((1-methylcyclopropyl)sulfonyl)carbamoyl)-5,16-dioxo-1,2,3,5,6,7,8,9,10,11,13a,14,14a,15,16,16a-hexadecahydrocyclopropa[e]pyrrolo[1,2-a][1,4]diazacyclopentadecin-6-yl)carbamate]
[1]
  EC50: < 5.46 nM
[2]
  EC50: < 5.46 nM

## COCCOc1cnc(O[C@@H]2C[C@H]3C(=O)N[C@]4(C(=O)NS(=O)(=O)C5(C)CC5)C[C@H]4/C=C\CC[C@@H](C)C[C@@H](C)[C@H](NC(=O)OC(C)(C)C)C(=O)N3C2)c2ccccc12 [Compound 1027, tert-butyl ((2R,6S,7R,9R,13aS,14aR,16aS,Z)-2-((4-(2-methoxyethoxyl)isoquinolin-1-yl)oxy)-7,9-dimethyl-14a-(((1-methylcyclopropyl)sulfonyl)carbamoyl)-5,16-dioxo-1,2,3,5,6,7,8,9,10,11,13a,14,14a,15,16,16a-hexadecahydrocyclopropa[e]pyrrolo[1,2-a][1,4]diazacyclopentadecin-6-yl)carbamate]
[1]
  EC50: < 5.46 nM
[2]
  EC50: < 5.46 nM

## C[C@@H]1CC/C=C\[C@@H]2C[C@@]2(C(=O)NS(=O)(=O)C2CC2)NC(=O)[C@@H]2C[C@@H](Oc3ncc(OCC(F)F)c4ccccc34)CN2C(=O)[C@@H](NC(=O)OC(C)(C)C)[C@H](C)C1 [Compound 1028, tert-butyl ((2R,6S,7R,9R,13aS,14aR,16aS,Z)-14a-((cyclopropylsulfonyl)carbamoyl)-2-((4-(2,2-difluoroethoxyl)isoquinolin-1-yl)oxy)-7,9-dimethyl-5,16-dioxo-1,2,3,5,6,7,8,9,10,11,13a,14,14a,15,16,16a-hexadecahydrocyclopropa[e]pyrrolo[1,2-a][1,4]diazacyclopentadecin-6-yl)carbamate]
[1]
  EC50: < 5.46 nM
[2]
  EC50: < 5.46 nM

## C[C@H]1CC/C=C\[C@@H]2C[C@@]2(C(=O)NS(=O)(=O)C2(C)CC2)NC(=O)[C@@H]2C[C@@H](Oc3ncc(OCC(F)F)c4ccccc34)CN2C(=O)[C@@H](NC(=O)OC(C)(C)C(F)(F)F)[C@H](C)C1 [Compound 1029, 1,1,1-trifluoro-2-methylpropan-2-yl((2R,6S,7R,9S,13aS,14aR,16aS,Z)-2-((4-(2,2-difluoroethoxyl)isoquinolin-1-yl)oxy)-7,9-dimethyl-14a-(((1-methylcyclopropyl)sulfonyl)carbamoyl)-5,16-dioxo-1,2,3,5,6,7,8,9,10,11,13a,14,14a,15,16,16a-hexadecahydrocyclopropa[e]pyrrolo[1,2-a][1,4]diazacyclopentadecin-6-yl)carbamate]
[1]
  EC50: 4.82 to 103 nM
[2]
  EC50: 4.82 to 103 nM

## C[C@@H]1CC/C=C\[C@@H]2C[C@@]2(C(=O)NS(=O)(=O)C2(C)CC2)NC(=O)[C@@H]2C[C@@H](Oc3ncc(OCC(F)F)c4ccccc34)CN2C(=O)[C@@H](NC(=O)OC(C)(C)C(F)(F)F)[C@H](C)C1 [Compound 1030, 1,1,1-trifluoro-2-methylpropan-2-yl((2R,6S,7R,9R,13aS,14aR,16aS,Z)-2-((4-(2,2-difluoroethoxyl)isoquinolin-1-yl)oxy)-7,9-dimethyl-14a-(((1-methylcyclopropyl)sulfonyl)carbamoyl)-5,16-dioxo-1,2,3,5,6,7,8,9,10,11,13a,14,14a,15,16,16a-hexadecahydrocyclopropa[e]pyrrolo[1,2-a][1,4]diazacyclopentadecin-6-yl)carbamate]
[1]
  EC50: < 5.46 nM
[2]
  EC50: < 5.46 nM

## C[C@H]1CC/C=C\[C@@H]2C[C@@]2(C(=O)NS(=O)(=O)C2CC2)NC(=O)[C@@H]2C[C@@H](Oc3ncc(OCC(F)F)c4ccccc34)CN2C(=O)[C@@H](NC(=O)OC(C)(C)C(F)(F)F)[C@H](C)C1 [Compound 1031, 1,1,1-trifluoro-2-methylpropan-2-yl((2R,6S,7R,9S,13aS,14aR,16aS,Z)-14a-((cyclopropylsulfonyl)carbamoyl)-2-((4-(2,2-difluoroethoxyl)isoquinolin-1-yl)oxy)-7,9-dimethyl-5,16-dioxo-1,2,3,5,6,7,8,9,10,11,13a,14,14a,15,16,16a-hexadecahydrocyclopropa[e]pyrrolo[1,2-a][1,4]diazacyclopentadecin-6-yl)carbamate]
[1]
  EC50: 4.82 to 103 nM
[2]
  EC50: 4.82 to 103 nM

## C[C@@H]1CC/C=C\[C@@H]2C[C@@]2(C(=O)NS(=O)(=O)C2CC2)NC(=O)[C@@H]2C[C@@H](Oc3ncc(OCC(F)F)c4ccccc34)CN2C(=O)[C@@H](NC(=O)OC(C)(C)C(F)(F)F)[C@H](C)C1 [Compound 1032, 1,1,1-trifluoro-2-methylpropan-2-yl((2R,6S,7R,9R,13aS,14aR,16aS,Z)-14a-((cyclopropylsulfonyl)carbamoyl)-2-((4-(2,2-difluoroethoxyl)isoquinolin-1-yl)oxy)-7,9-dimethyl-5,16-dioxo-1,2,3,5,6,7,8,9,10,11,13a,14,14a,15,16,16a-hexadecahydrocyclopropa[e]pyrrolo[1,2-a][1,4]diazacyclopentadecin-6-yl)carbamate]
[1]
  EC50: < 5.46 nM
[2]
  EC50: < 5.46 nM

## COCCOc1cnc(O[C@@H]2C[C@H]3C(=O)N[C@]4(C(=O)NS(=O)(=O)C5CC5)C[C@H]4/C=C\CC[C@@H](C)C[C@@H](C)[C@H](NC(=O)OC(C)(C)C)C(=O)N3C2)c2ccccc12 [Compound 1033, tert-butyl ((2R,6S,7R,9R,13aS,14aR,16aS,Z)-14a-((cyclopropylsulfonyl)carbamoyl)-2-((4-(2-methoxyethoxyl)isoquinolin-1-yl)oxy)-7,9-dimethyl-5,16-dioxo-1,2,3,5,6,7,8,9,10,11,13a,14,14a,15,16,16a-hexadecahydrocyclopropa[e]pyrrolo[1,2-a][1,4]diazacyclopentadecin-6-yl)carbamate]
[1]
  EC50: < 5.46 nM
[2]
  EC50: < 5.46 nM
